Data: US20200216493A1, “ANTIMICROBIAL PEPTIDES” (FERRING B.V., priority 2016, published 2020)
Values after ≈ are worked out from the molar mass of the structure shown. Bridge positions count the residues as written; N and C are the ends. Square brackets hold non-standard residues; d marks the D form. Peptide text beside a SMILES is read from it. d(aIle) = CC[C@H](C)[C@@H](N)C(=O)O; dNMeF = CN[C@H](Cc1ccccc1)C(=O)O

Key:
E.coli = assay type: cell-based, Escherichia coli; settings: for MIC ratio Coli/Staph: ratio of E. coli MIC to S. aureus MIC
Method: (§1) This assay was used to determine the minimum concentration of a test compound (i.e., an antimicrobial peptide described herein) able to inhibit the growth of a bacterial strain of interest. This is a standard method for measuring and comparing the potency of peptide-based antibacterial agents (Steinberg et al., Antimicrobial Agents and Chemotherapy 1997, 41 (8) 1738 - 1742 and Wiegand et al., Nature Protocols 2008, 3, 163-175).
(§2) The MIC is reported in units of μg/mL.
(§3) Bacterial cultures were grown by inoculating Mueller-Hinton Broth (MHB) with 3 or 4 representative colony (typical size, color, and shape) from a bacterial strain grown on a LB agar plate. Inoculated liquid cultures were grown at 37° C. with moderate shaking (200-250 rpm) until bacteria produced a visibly turbid suspension. Bacterial inoculum was approximated by measuring the optical density at 600 nm (0D600) of the bacterial culture against a sterile MHB blank. Typically, OD600=0.10 corresponds to ˜1×10^8 cfu/mL for S.aureus and OD600 =0.15 corresponds to ˜1×10^8 cfu/mL for E.coli.
(§4) Test compounds were prepared as stock solutions in vehicle at a concentration 10 times the highest concentration to be tested for antibacterial activity (usually 320 μg/mL stock solutions). 2x serial dilutions in vehicle (at 10× the final test concentrations) of the test compounds were prepared from the test compound stock solutions in a non-binding 96 well plate.
(§5) In a sterile clear flat bottom 96 well plate, 15 μL of each test compound dilution was added to 135 μL of ˜5×10^5 cfu/mL bacterial culture. Each concentration was tested in duplicate. Each experiment contained positive control wells for bacterial growth (i.e., no test compound added to bacteria) and sterility controls wells (i.e., sterile MHB and no test compounds added). 96 well plates containing bacterial cultures and test compounds were incubated at 37° C. for 16-20 hours with shaking at 200 rpm.
(§6) After incubation, the MIC of each test compound was determined by measuring the OD600 of each well using a plate reader. Wells with OD600 >0.08 were considered to have bacterial growth and wells with OD600<0.08 were considered to have no bacterial growth. The lowest concentration of test agent able to inhibit bacterial growth (0D600<0.08 after 16-20 hours) was defined as the MIC.

S.aureus = assay type: cell-based, Staphylococcus aureus
Method: as §1, §2, §3, §4, §5, §6

S. aureus (14 isolates) = assay type: cell-based, Staphylococcus aureus; settings: 20 h
Method: (§7) The broth microdilution susceptibility assay followed the procedure described by the Clinical and Laboratory Standards Institute (CLSI) in CLSI document M7-A10.
(§8) The following bacteria isolates were tested:
(§9) S.aureus, S.epidermidis, E.faecalis, and E.faecium colonies were grown on TSA (Tryptone Soya Agar; cat.N. P05012A -OXOID) S.pneumoniae and S.pyogenes colonies were grown on TSASB ((TSA) Agar +5% Sheep Blood; cat.N. PB5012A -OXOID). An inoculum was prepared by making a direct saline suspension of isolated colonies selected from an 18 to 24 hours agar plate incubated at 35±2 ° C. in ambient air. The suspension was adjusted to achieve a turbidity equivalent to a 0.5 McFarland turbidity standard (1 to 2 ×10^8 Colony Forming Units (CFU)) and diluted 200 fold within 15 minutes in broth. (S.aureus, S.epidermidis, E.faecalis, and E.faecium were diluted in CAMHB: Mueller Hinton Broth 2, Cation-Adjusted (cat. N. 90922 Fluka); S.pneumoniae and S.pyogenes were diluted in CAMHB +2.5% lysed horse blood. All broth contained 0.002% polysorbate 80.
(§10) 96-well plates were prepared containing 1 μL of the test compound (at 100× desired test concentration in 100% DMSO); compounds were tested at 8 final concentrations, i.e. 16 μg/mL, 8 μg/mL, 4 μg/mL, 2 μg/mL, 1 μg/mL, 0.5 μg/mL, 0.25 μg/mL, and 0.125 μg/mL. 100 μL of the broth dilution was dispensed in each well plate to have a final bacterial concentration in plate of ˜5×10^5 CFU/mL. The plates were incubated at 35±2° C. in ambient air for 20 hours.

[1] = test system: S. epidermidis (5 isolates); assay type: cell-based, Staphylococcus epidermidis; settings: 20 h
Method: as §7, §8, §9, §10

[2] = test system: S. pneumoniae (8 isolates); assay type: cell-based, Streptococcus pneumonia; settings: 20 h
Method: as §7, §8, §9, §10

S. pyogenes (2 isolates) = assay type: cell-based, Streptococcus pyogenes; settings: 20 h
Method: as §7, §8, §9, §10

E. faecalis (5 isolates) = assay type: cell-based, Enterococcus faecalis; settings: 20 h
Method: as §7, §8, §9, §10

E. faecium (3 isolates) = assay type: cell-based, Enterococcus faecium; settings: 20 h
Method: as §7, §8, §9, §10

in vitro = assay type: cell-based; settings: human, HepG2 cells
Method: Compounds were tested for cytotoxicity to a mammalian cell line HepG2 (Human hepatocyte carcinoma from ECACC (85011430)). Hep G2 cells were seeded into 96-well plates, 7500 cells/well in 100 μl medium (Minimum Essential Medium (Gibco 21090) supplemented with 2 mM L-Glutamine, 1% non-essential amino acids and 10% fetal bovine serum) and incubated for 20 hours at 37° C., 5% CO2. 100 μL of fresh medium containing a test compound or DMSO (for control) at 2× final concentration were added and incubated for 48 hours at 37° C., 5% CO2. The final concentration of DMSO in plate was 1%. At the end of this incubation, 20 μl MTT (Thiazolyl Blue Tetrazolium Bromide) solution 5 mg/ml in H2O (0.5 mg/ml final in well) was added to all wells. Cells were incubated with MTT for 4 hours at 37° C., 5% CO2. After incubation, medium containing MTT was removed; 200 μl of DMSO was added in each well and plates were put on a shaker for 5 minutes. Absorbance was read on a SpectraMax plate reader at 570 nm. Specific absorbance (Specific A570) was calculated by subtracting the mean absorbance values of the blank wells (no HepG2 cells) from each well. Control values were determined from wells containing cells and treated with medium+1% DMSO only (no test compound). % viability was calculated as:
(Specific A570test compound/Specific A570control)×100.

| Compound | MIC E. coli (E.coli) | MIC ratio Coli/Staph (E.coli) | MIC S. aureus (S.aureus) | S. Aureus (14) MIC90 (S. aureus (14 isolates)) | S. epidermidis (MIC90) (5) [1] | S. pneumoniae (8) MIC90 [2] | S. pyogenes (2) MIC90 (S. pyogenes (2 isolates)) | E. faecalis (5) MIC90 (E. faecalis (5 isolates)) | E. faecium (3) MIC90 (E. faecium (3 isolates)) | viability at 48 h, 100 µM (in vitro) | MIC C. difficile (C. difficile) | MIC B. fragilis (B. fragilis) |
| --- | --- | --- | --- | --- | --- | --- | --- | --- | --- | --- | --- | --- |
| CC[C@H](C)[C@H](NC(=O)[C@@H](Cc1ccc(Cl)cc1)NC)C(=O)N[C@@H](CO)C(=O)N[C@H](CCC(N)=O)C(=O)N[C@@H](C(=O)N[C@H](C(=O)N[C@@H](CO)C(=O)N[C@H]1C(=O)N[C@@H](C)C(=O)N[C@@H](CCCCNC(=N)N)C(=O)N[C@@H]([C@@H](C)CC)C(=O)O[C@H]1C)[C@@H](C)CC)[C@@H](C)CC [Compound 70, H-D-MePhe(4-Cl)-Ile-Ser-D-Gln-D-aIle-Ile-Ser-c(D-Thr-Ala-Har-Ile)] | >16 µg/mL | >530 | 0.03 to 0.06 µg/mL | ≤0.12 µg/mL | ≤0.12 µg/mL | ≤0.12 µg/mL | ≤0.12 µg/mL | 0.25 µg/mL | ≤0.12 µg/mL | 114% | 0.015 to 0.03 µg/mL | >32 µg/mL |
| CC[C@H](C)[C@H](NC(=O)[C@@H](Cc1ccccc1)NC)C(=O)N[C@@H](Cc1cccc2ccccc12)C(=O)N[C@H](CCC(N)=O)C(=O)N[C@@H](C(=O)N[C@H](C(=O)N[C@@H](CO)C(=O)N[C@H]1C(=O)N[C@@H](C)C(=O)N[C@@H](CCCCNC(=N)N)C(=O)N[C@@H]([C@@H](C)CC)C(=O)O[C@H]1C)[C@@H](C)CC)[C@@H](C)CC [Compound 73, H-D-MePhe-Ile-lNal-D-Gln-D-aIle-Ile-Ser-c(D-Thr-Ala-Har-Ile)] | – | – | – | 0.5 µg/mL | 0.25 µg/mL | ≤0.12 µg/mL | ≤0.12 µg/mL | 0.5 µg/mL | 0.25 µg/mL | 113% | – | – |
| CC[C@H](C)[C@H](NC(=O)[C@@H](Cc1ccccc1)NC)C(=O)N[C@@H](CO)C(=O)N[C@H](CCC(N)=O)C(=O)N[C@@H](C(=O)N[C@H](C(=O)N[C@@H](CO)C(=O)N[C@H]1C(=O)N[C@@H](C)C(=O)N[C@@H](CCCNC(=N)N)C(=O)N[C@@H]([C@@H](C)CC)C(=O)O[C@H]1C)[C@@H](C)CC)[C@@H](C)CC [[Arg10]teixobactin, reference compound] | – | – | – | 0.5 µg/mL | 0.5 µg/mL | 0.25 µg/mL | 0.25 µg/mL | 2 µg/mL | 2 µg/mL | 115% | – | – |
| CC[C@H](C)[C@H](NC(=O)[C@@H](Cc1ccccc1)NC)C(=O)N[C@@H](CO)C(=O)N[C@H](CCCCN)C(=O)N[C@@H](C(=O)N[C@H](C(=O)N[C@@H](CO)C(=O)N[C@H]1C(=O)N[C@@H](C)C(=O)N[C@@H](CCCCN)C(=O)N[C@@H]([C@@H](C)CC)C(=O)O[C@H]1C)[C@@H](C)CC)[C@@H](C)CC [Compound 14, H-D-MePhe-Ile-Ser-D-Lys-D-aIle-Ile-Ser-c(D-Thr-Ala-Lys-Ile)] (H-[dNMeF]IS[dK][d(aIle)]IS[dT]AKI; ester 8-C) | 4 µg/mL (≈ 3.29 µM) | 16 | 0.25 µg/mL (≈ 0.206 µM) | – | – | – | – | – | – | – | 0.06 to 0.12 µg/mL | >32 µg/mL |
| CC[C@H](C)[C@H](NC(=O)[C@@H](Cc1ccccc1)NC)C(=O)N[C@@H](CO)C(=O)N[C@H](CCC(N)=O)C(=O)N[C@@H](C(=O)N[C@H](C(=O)N[C@@H](CO)C(=O)N[C@H]1C(=O)N[C@@H](C)C(=O)N[C@@H](CCCCN)C(=O)N[C@@H]([C@@H](C)CC)C(=O)O[C@H]1C)[C@@H](C)CC)[C@@H](C)CC [Lys10-teixobactin] | 16 µg/mL (≈ 13.2 µM) | 64 | 0.25 µg/mL (≈ 0.206 µM) | – | – | – | – | – | – | – | 0.12 µg/mL (≈ 0.0986 µM) | >32 µg/mL |
| CC[C@H](C)[C@H](NC(=O)[C@@H](Cc1ccccc1)NC)C(=O)N[C@@H](CO)C(=O)N[C@H](CCC(N)=O)C(=O)N[C@@H](C(=O)N[C@H](C(=O)N[C@@H](CO)C(=O)N[C@H]1C(=O)N[C@@H](C)C(=O)N[C@@H](CCCNC(=N)N)C(=O)N[C@@H]([C@@H](C)CC)C(=O)O[C@H]1C)[C@@H](C)CC)[C@@H](C)CC [Arg10-teixobactin] | >16 µg/mL | >64 | 0.25 to 0.5 µg/mL | – | – | – | – | – | – | – | 0.12 µg/mL (≈ 0.0964 µM) | >32 µg/mL |
| CC[C@H](C)[C@H](NC(=O)[C@@H](Cc1ccccc1)NC)C(=O)N[C@@H](CO)C(=O)N[C@H](CCC(N)=O)C(=O)N[C@@H](C(=O)N[C@H](C(=O)N[C@@H](CO)C(=O)N[C@H]1C(=O)N[C@@H](C)C(=O)N[C@@H](CCCNC(=N)NC)C(=O)N[C@@H]([C@@H](C)CC)C(=O)O[C@H]1C)[C@@H](C)CC)[C@@H](C)CC [Compound 11, H-D-MePhe-Ile-Ser-D-Gln-D-aIle-Ile-Ser-c(D-Thr-Ala-Arg(Me)-Ile)] | 16 µg/mL (≈ 12.7 µM) | 64 | 0.25 µg/mL (≈ 0.199 µM) | – | – | – | – | – | – | – | 0.12 µg/mL (≈ 0.0953 µM) | >32 µg/mL |
| CC[C@H](C)[C@H](NC(=O)[C@@H](Cc1ccccc1)NC)C(=O)N[C@@H](CO)C(=O)N[C@H](CCC(N)=O)C(=O)N[C@@H](C(=O)N[C@H](C(=O)N[C@@H](CO)C(=O)N[C@H]1C(=O)N[C@@H](C)C(=O)N[C@@H](CCCCN)C(=O)N[C@@H]([C@@H](C)CC)C(=O)O[C@H]1C)[C@@H](C)CC)[C@@H](C)CC [[Lys10]teixobactin, reference compound] | – | – | – | 0.5 µg/mL | 0.5 µg/mL | ≤0.12 µg/mL | 0.25 µg/mL | 2 µg/mL | 1 µg/mL | 95.6% | – | – |
